# What was measured:
# TAMs = experiment: Stimulation of TAMs by Man2-T785 conjugate in solution; assay type: cell-based; conditions: stimuli in solution, low / equivalent concentrations
# From the text: FIG. 21. Data showing synergism when a Dectin-2 agonist (in this case 65% Man2 100-mer) is conjugated to an immunostimulatory agent (in this case TLR7/8 agonist T785), yielding a glycopeptide conjugate (Man2-T785) that strongly stimulates cells in soluble form.
# Synergistic immunostimulatory effects were also observed for the conjugate in vitro. […] Also surprising, the attachment of the TLR7/8 agonist changed the behavior of the Man2 glycopeptides in vitro. Whereas Man2 glycopeptides typically require immobilization (e.g., on a plate or cell) to strongly activate TAMs, the results shown were obtained with the stimuli in solution. […] The same is true of the Man2-antibody conjugates described elsewhere in this disclosure. FIG. 22A presents a schematic of the synthesis used to generate the Man2-T785 conjugate used in FIGS. 20 and 21. Synthetic schemes similar to that depicted in FIG. 22A could also be used to prepare conjugates using R848 (FIG. 22C) and other TLR7/8 ligands.
# [1] = test system: tumor-associated myeloid cells (TAM cells); experiment: Coculture of kifunensine-pretreated PDAC cells with TAM (cytokine production, tumor cell uptake); assay type: cell-based; conditions: overnight coculture; Dectin-2-dependent
# Protocol: (§1) FIG. 5A-5D. Mannosidase inhibition with kifunensine induces high-mannose glycan display and increases tumor cell immunogenicity. (FIG. 5A-5C) PDAC cells were treated with kifunensine for 3 days prior to flow cytometric analysis (FIG. 5A) or coculture with TAM (FIG. 5B, FIG. 5C). (FIG. 5A) PDAC cells stained with the mannose-binding lectin, concavalin A. (FIG. 5B, FIG. 5C) Pretreated PDAC cells were labeled with CSFE and cocultured overnight with TAM to assess cytokine production (FIG. 5B) and tumor cell uptake (FIG. 5C) by Dectin-2-expressing TAM. In some experiments, TAM were treated with Dectin-2-blocking antibodies prior to coculture with PDAC cells (FIG. 5C). *, p<0.05 by Student's t-test. (FIG. 5D) Subcutaneous PDAC tumors from kifunensine-treated mice (i.p., q2d for 7 days) were analyzed by flow cytometry. CD8 T cells (CD8^+CD90^+) among total tumor-infiltrating immune cells are gated.
# subcutaneous PDAC tumors = experiment: Subcutaneous PDAC tumors from kifunensine-treated mice (flow cytometry); assay type: in vivo; conditions: i.p., q2d for 7 days
# Protocol: as §1
# PDAC cells = experiment: High-mannose glycan display by kifunensine-treated PDAC cells (concavalin A staining, flow cytometry); assay type: cell-based; conditions: tumor cells treated 3 days
# Protocol: as §1
# [2] = test system: Dectin-2 expression by human monocytes; experiment: Dectin-2 expression by human monocytes cultured with or without GM-CSF (flow cytometry); assay type: cell-based
# Protocol: (§2) FIG. 4A-4D. GM-CSF induces Dectin-2 expression and sensitizes tumors to Dectin-2 stimuli. (FIG. 4A-4C) Murine (FIG. 4A, FIG. 4B) and human (FIG. 4C) monocytes were cultured for 24 hr in media supplemented or not with GM-CSF (50 ng/mL) prior to flow cytometric analysis of Dectin-2 expression (FIG. 4A, FIG. 4C) or stimulation with furfurman and analysis of TNFα production (FIG. 4B). […] (FIG. 4D) Mice bearing s.c. CT26 tumors were treated with mannan (i.v.) and/or GM-CSF (i.t.) starting on day 6 post-tumor implantation.
# (§3) FIG. 27A-27G. […] (FIG. 27A, FIG. 27B) Dectin-2 expression by mouse (FIG. 27A) or human (FIG. 27B) monocytes cultured for 18 hr with media supplemented or not with GM-CSF. (C-E) TNFα production by mouse monocytes pretreated with 3T3 fibroblast-conditioned medium+/−GM-CSF (FIG. 27C) or LMP tumor-conditioned medium+/−GM-CSF-neutralizing antibodies (FIG. 27D) or by human monocytes pretreated as indicated (FIG. 27E). (FIG. 27F) LMP-bearing mice treated with mannan (12.5 mg/kg i.v. q2d×2 wk) and the indicated anibodies (10 mg/kg i.p. q2d). (FIG. 27G) Heatmap depicting correlations between expression of Dectin-2 and the indicated genes in human cancer tissues. Gene expression data were obtained from TCGA and analyzed to obtain Spearman's correlation coefficients. **, p<0.01; ****, p<0.0001 by Student's t-test (B) or two-way ANOVA with post hoc Tukey's (F) test. […]
# s.c. CT26 tumors = s.c. CT26 tumors treated with mannan (i.v.) and/or GM-CSF (i.t.); assay type: in vivo, mice; conditions: from day 6
# Protocol: as §2
# as §2, with “(FIG.” for “FIG. 4A-4D. GM-CSF induces Dectin-2 expression and sensitizes tumors to Dectin-2 stimuli. (FIG.”, “production.” for “production (FIG. 4B).”
# monocytes = experiment: TNFα production by monocytes pretreated with conditioned medium +/- GM-CSF; assay type: cell-based, mouse
# Protocol: FIG. 27A-27G. […] (FIG. 27A, FIG. 27B) Dectin-2 expression by mouse (FIG. 27A) or human (FIG. 27B) monocytes cultured for 18 hr with media supplemented or not with GM-CSF. (C-E) TNFα production by mouse monocytes pretreated with 3T3 fibroblast-conditioned medium+/−GM-CSF (FIG. 27C) or LMP tumor-conditioned medium+/−GM-CSF-neutralizing antibodies (FIG. 27D) or by human monocytes pretreated as indicated (FIG. 27E). (FIG. 27F) LMP-bearing mice treated with mannan (12.5 mg/kg i.v. q2d×2 wk) and the indicated anibodies (10 mg/kg i.p. q2d). (FIG. 27G) Heatmap depicting correlations between expression of Dectin-2 and the indicated genes in human cancer tissues. Gene expression data were obtained from TCGA and analyzed to obtain Spearman's correlation coefficients. **, p<0.01; ****, p<0.0001 by Student's t-test (B) or two-way ANOVA with post hoc Tukey's (F) test.
# [3] = test system: Dectin-2 expression by murine monocytes; experiment: Dectin-2 expression by murine monocytes cultured with or without GM-CSF (flow cytometry); assay type: cell-based
# Protocol: as §2, §3
molecule,measurement,setting,value
"CCCCc1nc2c(N)nc3ccccc3c2n1CCCCN [T785, 1-(4-aminobutyl)-2-butyl-1H-imidazo[4,5-c]quinolin-4-amine]",TAM stimulation,TAMs,did not
O=C1N[C@@H]2[C@@H](O)[C@@H](O)[C@H](O)[C@@H](CO)N2C1=O [kifunensine],"TAM activation by treated tumor cells (cytokine production, tumor cell uptake)",[1],activated tumor-associated myeloid cells (TAM cells)
same,T cell infiltration into tumors,subcutaneous PDAC tumors,led to T cell infiltration into tumors
same,high-mannose glycan display by tumor cells in vivo,subcutaneous PDAC tumors,increased high-mannose glycan display by tumor cells
same,high-mannose glycans on the cell surface,PDAC cells,sharp increase in high-mannose glycans on the cell surface
GM-CSF: granulocyte-macrophage colony-stimulating factor,Dectin-2 expression,[2]; 18 hr,drives Dectin-2 expression
same,Dectin-2 expression,"[2]; GM-CSF 50 ng/mL, 24 hr",induced Dectin-2 expression
same,tumor sensitivity to Dectin-2 stimuli (tumor volume),s.c. CT26 tumors,sensitized tumors to Dectin-2 stimuli
same,sensitivity to Dectin-2 stimuli (TNFα production),monocytes,sensitizes TAMs to Dectin-2 stimuli
same,Dectin-2 expression,"[3]; mouse monocytes, 18 hr",drives Dectin-2 expression
same,Dectin-2 expression,"[3]; murine monocytes, GM-CSF 50 ng/mL, 24 hr",induced Dectin-2 expression

# — US20200140556A1, “Methods and Compositions for Dectin-2 Stimulation and Cancer Immunotherapy” (The Board of Trustees of the Leland Stanford Junior …, priority 2017, published 2020)
